Source: patent US20240246940A1, “HETEROARYL DERIVATIVE COMPOUND AND USE THEREOF” (VORONOI INC., priority 2021, published 2024)
Read-outs that look alike come from different tables or passages of the source.

Assays:
[1] = system: BT-474 cells (HER2 overexpressing cell line); experiment: BT-474 cell proliferation inhibitory activity (CellTiter-Glo, 120 hours); format: cell-based
Protocol: To evaluate the cell proliferation inhibitory activity of the compound according to the present invention on HER2 and EGFR kinases, the following method was performed using HER2 overexpressing cell lines (SK-BR-3, BT-474, and N-87) and EGFR expressing cell line (HaCaT).
McCOY'S 5A supplemented with 10% FBS was used for SK-BR-3 cells, RPMI-1640 medium supplemented with 20% FBS was used for BT-474 cancer cells, and RPMI-1640 medium supplemented with 10% FBS was used for N-87 cancer cells. DMEM supplemented with 10% FBS was used for HaCaT cells.
For SK-BR-3 cells, 5000 cells were aliquoted into each well of a white clear bottom 96 well plate (Corning) 48 hours before treatment with the compounds of Examples. For BT-474 cells, 5000 cells were aliquoted into each well of a white clear bottom 96 well plate (Corning) 48 hours before treatment with the compounds of Examples. For N-87 cells, 5000 cells were aliquoted into each well of a white clear bottom 96 well plate (Corning) 24 hours before treatment with the compounds of Examples. For HaCaT cells, 3000 cells were aliquoted into each well of a white clear bottom 96 well plate (Corning) 24 hours before treatment with the compounds of Examples. For SK-BR-3 cells and BT-474 cells, the compounds of Examples were diluted in dimethyl sulfoxide (three-fold dilution, a total of 11 concentrations) and injected each in an amount of 1 μl to a final concentration of 0.2 nM to 10 μM. For N-87 cells, the compounds of Examples were diluted in dimethyl sulfoxide (five-fold dilution, a total of 11 concentrations) and injected each in an amount of 0.5 μl to a final concentration of […] to 5 μM. For HaCaT cells, the compounds of Examples were diluted in dimethyl sulfoxide (three-fold dilution, a total of 11 concentrations) and injected each in an amount of 0.5 μl to a final concentration of 0.8 nM to 45 μM. For the measurement of living cells, the cells were stored at room temperature for 10 minutes using CellTiter-Glo cell viability reagent (Promega) after a certain period of time (SK-BR-3: 120 hours, BT-474: 120 hours, N-87: 72 hours, and HaCaT: 72 hours) post treatment with the compounds of Examples, and the luminescence intensity thereof was measured using a reader (SynergyNeo, Biotek). Each test was repeated three times.
The result values were calculated as a cell growth rate (%) compared to those of the control group. A graph was created using the GraphPad Prism version 5.0 program, and GI50 values were calculated.

[2] = system: HaCaT cells (EGFR expressing cell line); experiment: HaCaT cell proliferation inhibitory activity (CellTiter-Glo, 72 hours); format: cell-based
In short: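 GI50 values derive from luminescence-based live-cell counts, expressed relative to control growth. Final compound ranges were 0.2 nM–10 μM for the two breast lines, […]–5 μM in N-87 and 0.8 nM–45 μM in HaCaT. Tests were run three times.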

Row | SMILES | GI50 [1] | GI50 ([1]; Homo sapiens) | GI50 [2] | GI50 ([2]; Homo sapiens)
1 | C=CC(=O)N1CCC(Nc2cc3c(Nc4cc(-c5ccc(F)cc5F)ccc4OC)ncnc3cc2OC(F)F)CC1 [Example 297, 1-(4-((4-((2′,4′-difluoro-4-methoxy-[1,1′-biphenyl]-3-yl)amino)-7-(difluoromethoxy)quinazolin-6-yl)amino)piperidin-1-yl)prop-2-en-1-one] | – | ≤ 0.15 µM | – | ≤ 0.15 µM
2 | C=CC(=O)N1CCC(Oc2cc3c(Nc4cc(-c5cccc([N+](=O)[O-])c5)ccc4OC)ncnc3cc2OC)CC1 [Example 197, 1-(4-((7-methoxy-4-((4-methoxy-3′-nitro-[1,1′-biphenyl]-3-yl)amino)quinazolin-6-yl)oxy)piperidin-1-yl)prop-2-en-1-one] | – | 0.15 to 1 µM | – | > 1 µM
3 | C=CC(=O)N1CCC(Oc2cc3c(Nc4cc(-c5ccc(F)c(C(F)F)c5)ccc4OC)ncnc3cc2OC)CC1 [Example 196, 1-(4-((4-((3′-(difluoromethyl)-4′-fluoro-4-methoxy-[1,1′-biphenyl]-3-yl)amino)-7-methoxy-quinazolin-6-yl)oxy)piperidin-1-yl)prop-2-en-1-one] | – | ≤ 0.15 µM | – | 0.15 to 1 µM
4 | C=CC(=O)N1CCC(Oc2cc3c(Nc4cc(-c5ccc6ccsc6c5)ccc4OC)ncnc3cc2OC)CC1 [Example 193, 1-(4-((4-((5-(benzo[b]thiophen-6-yl)-2-methoxyphenyl)amino)-7-methoxy-quinazolin-6-yl)oxy)piperidin-1-yl)prop-2-en-1-one] | – | 0.15 to 1 µM | – | ≤ 0.15 µM
5 | C=CC(=O)N1CCC(Oc2cc3c(Nc4cc(-c5ccc(F)c(C)c5F)ccc4OC)ncnc3cc2OC)CC1 [Example 207, 1-(4-((4-((2′,4′-difluoro-4-methoxy-3′-methyl-[1,1′-biphenyl]-3-yl)amino)-7-methoxy-quinazolin-6-yl)oxy)piperidin-1-yl)prop-2-en-1-one] | – | ≤ 0.15 µM | – | 0.15 to 1 µM
6 | C=CC(=O)N1[C@@H]2CC[C@H]1C[C@H](Oc1cc3c(Nc4cc(-c5ccco5)ccc4OC)ncnc3cc1OC)C2 [Example 172, 1-((1R,3s,5S)-3-((4-((5-(furan-2-yl)-2-methoxyphenyl)amino)-7-methoxy-quinazolin-6-yl)oxy)-8-azabicyclo [3.2.1]octan-8-yl)prop-2-en-1-one] | – | ≤ 0.15 µM | – | ≤ 0.15 µM
7 | C=CC(=O)N1CC(Oc2cc3c(Nc4cc(-c5cccc(N(C)C)c5)ccc4OC)ncnc3cc2OC)C1 [Example 199, 1-(3-((4-((3′-(dimethylamino)-4-methoxy-[1,1′-biphenyl]-3-yl)amino)-7-methoxy-quinazolin-6-yl)oxy)azetidin-1-yl)prop-2-en-1-one] | – | ≤ 0.15 µM | – | 0.15 to 1 µM
8 | C=CC(=O)N1CCC(F)(F)C(Oc2cc(OC)cc3ncnc(Nc4cc(-c5ccc(F)cc5F)ccc4OC)c23)C1 (centres unmarked) [Example 201, 1-(3-((4-((2′,4′-difluoro-4-methoxy-[1,1′-biphenyl]-3-yl)amino)-7-methoxy-quinazolin-5-yl)oxy)-4,4-difluoro-piperidin-1-yl)prop-2-en-1-one] | – | ≤ 0.15 µM | – | ≤ 0.15 µM
9 | C=CC(=O)N1CCC(Oc2cc3c(Nc4cc(-c5ccc6c(c5)OCO6)ccc4OC)ncnc3cc2OC)CC1 [Example 153, 1-(4-((4-((5-(benzo[d][1,3]dioxol-5-yl)-2-methoxyphenyl)amino)-7-methoxy-quinazolin-6-yl)oxy)piperidin-1-yl)prop-2-en-1-one] | – | 0.15 to 1 µM | – | > 1 µM
10 | C=CC(=O)N1CCC(Oc2cc3c(Nc4cc(-c5ccc(F)cc5F)ccc4OC)ncnc3cc2OCC)CC1 [Example 239, 1-(4-((4-((2′,4′-difluoro-4-methoxy-[1,1′-biphenyl]-3-yl)amino)-7-ethoxyquinazolin-6-yl)oxy)piperidin-1-yl)prop-2-en-1-one] | – | ≤ 0.15 µM | – | ≤ 0.15 µM
11 | COc1cc2ncnc(Nc3cc(-c4ccc(F)cc4F)ccc3OC)c2cc1NC(=O)/C=C/CN1CCN(C)CC1 [Example 317, (E)-N-(4-((2′,4′-difluoro-4-methoxy-[1,1′-biphenyl]-3-yl)amino)-7-methoxyquinazolin-6-yl)-4-(4-methylpiperazin-1-yl)but-2-enamide] | – | ≤ 0.15 µM | – | ≤ 0.15 µM
12 | C=CC(=O)N1CCC(Nc2cc3c(Nc4cc(-c5cccc(C=O)c5)ccc4OC)ncnc3cc2OC)CC1 [Example 209, 3′-((6-((1-acryloyl-piperidin-4-yl)amino)-7-methoxy-quinazolin-4-yl)amino)-4′-methoxy-[1,1′-biphenyl]-3-carbaldehyde] | – | ≤ 0.15 µM | – | 0.15 to 1 µM
13 | C=CC(=O)N1CCC(F)(F)C(Oc2cccc3ncnc(Nc4cc(-c5ccc(F)cc5F)ccc4OC)c23)C1 (centres unmarked) [Example 200, 1-(3-((4-((2′,4′-difluoro-4-methoxy-[1,1′-biphenyl]-3-yl)amino)quinazolin-5-yl)oxy)-4,4-difluoro-piperidin-1-yl)prop-2-en-1-one] | – | ≤ 0.15 µM | – | ≤ 0.15 µM

Now from value to compound, other results behind:

Row | GI50 [1] | GI50 ([1]; Homo sapiens) | SMILES | GI50 [2] | GI50 ([2]; Homo sapiens)
14 | ≤ 0.15 µM | – | C=CC(=O)N1CCC(Oc2cc(OC)cc3ncnc(Nc4cc(-c5ccco5)ccc4OC)c23)C(F)(F)C1 (centres unmarked) [Example 99, 1-(3,3-difluoro-4-((4-((5-(furan-2-yl)-2-methoxyphenyl)amino)-7-methoxy-quinazolin-5-yl)oxy)piperidin-1-yl)prop-2-en-1-one] | ≤ 0.15 µM | –
15 | – | ≤ 0.15 µM | C=CC(=O)N1CC[C@H](Oc2cc3c(Nc4cc(-c5ccco5)ccc4OC)ncnc3cc2OC)[C@@H](F)C1 [Example 174, 1-((3S,4S)-3-fluoro-4-((4-((5-(furan-2-yl)-2-methoxyphenyl)amino)-7-methoxy-quinazolin-6-yl)oxy)piperidin-1-yl)prop-2-en-1-one] | – | ≤ 0.15 µM
16 | – | > 1 µM | C=CC(=O)N1CC2(C1)CN(c1cc3c(Nc4cc(-c5ccco5)ccc4OC)ncnc3cc1OC)C2 [Example 326, 1-(6-(4-((5-(furan-2-yl)-2-methoxyphenyl)amino)-7-methoxyquinazolin-6-yl)-2,6-diazaspiro[3.3]heptan-2-yl)prop-2-en-1-one] | – | 0.15 to 1 µM
17 | – | ≤ 0.15 µM | COc1cc2ncnc(Nc3cc(-c4ccco4)ccc3OC)c2cc1NC(=O)/C=C/CN1CCN(C)CC1 [Example 314, (E)-N-(4-((5-(furan-2-yl)-2-methoxyphenyl)amino)-7-methoxyquinazolin-6-yl)-4-(4-methylpiperazin-1-yl)but-2-enamide] | – | ≤ 0.15 µM
18 | – | > 1 µM | C=CC(=O)N1CC2(CCC(Oc3cc4c(Nc5cc(-c6ccco6)ccc5OC)ncnc4cc3OC)C2)C1 (centres unmarked) [Example 221, 1-(6-((4-((5-(furan-2-yl)-2-methoxyphenyl)amino)-7-methoxy-quinazolin-6-yl)oxy)-2-azaspiro[3.4]octan-2-yl)prop-2-en-1-one] | – | 0.15 to 1 µM
19 | – | ≤ 0.15 µM | C=CC(=O)N1CCC(Oc2cc3c(Nc4cc(-c5ccc(F)o5)ccc4OC)ncnc3cc2OC)CC1 [Example 88, 1-(4-((4-((5-(5-fluorofuran-2-yl)-2-methoxyphenyl)amino)-7-methoxy-quinazolin-6-yl)oxy)piperidin-1-yl)prop-2-en-1-one] | – | ≤ 0.15 µM
20 | – | > 1 µM | C=CC(=O)N1CCC2(CC1)CN(c1cc3c(Nc4cc(-c5ccco5)ccc4OC)ncnc3cc1OC)C2 [Example 324, 1-(2-(4-((5-(furan-2-yl)-2-methoxyphenyl)amino)-7-methoxyquinazolin-6-yl)-2,7-diazaspiro[3.5]nonan-7-yl)prop-2-en-1-one] | – | 0.15 to 1 µM
21 | – | ≤ 0.15 µM | C=CC(=O)N1CCC(F)(F)C(Oc2cc(OC)cc3ncnc(Nc4cc(-c5ccco5)ccc4OC)c23)C1 (centres unmarked) [Example 53, 1-(4,4-difluoro-3-((4-((5-(furan-2-yl)-2-methoxyphenyl)amino)-7-methoxy-quinazolin-5-yl)oxy)piperidin-1-yl)prop-2-en-1-one] | – | ≤ 0.15 µM
22 | – | > 1 µM | C=C(F)C(=O)N1CCC(Oc2cc3c(Nc4cc(-c5ccco5)ccc4OC)ncnc3cc2OC)CC1 [Example 184, 2-fluoro-1-(4-((4-((5-(furan-2-yl)-2-methoxyphenyl)amino)-7-methoxy-quinazolin-6-yl)oxy)piperidin-1-yl)prop-2-en-1-one] | – | 0.15 to 1 µM
